Test results: PMC4856769 (Cell Research, 2016)

Biological target: T1, YEATS domain of YEATS2 (YEATS2 201-332) (Homo sapiens, UniProt Q9ULM3)
T1 sequence (Q9ULM3 201-332): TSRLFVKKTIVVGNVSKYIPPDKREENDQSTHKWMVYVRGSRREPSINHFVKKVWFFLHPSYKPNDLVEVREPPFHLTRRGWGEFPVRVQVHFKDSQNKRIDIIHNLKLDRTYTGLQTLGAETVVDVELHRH
Experiment: ITC binding of histone peptides to the YEATS domain of YEATS2

binding (in words) (ITC, 15°C, wild type YEATS2 201-332)	Compound	Kd
	C/C=C/C(=O)NCCCC[C@H](NC(=O)[C@@H](NC(=O)[C@H](CCCNC(=N)N)NC(=O)[C@H](C)N)[C@@H](C)O)C(=O)N[C@@H](CCC(N)=O)C(=O)N[C@H](C(=O)N[C@@H](C)C(=O)N[C@@H](CCCNC(=N)N)C(=O)N[C@@H](CCCCN)C(=O)N[C@@H](CO)C(=O)N[C@H](C(=O)NCC(=O)NCC(=O)N[C@@H](CCCCN)C(=O)N[C@@H](C)C(=O)O)[C@@H](C)O)[C@@H](C)O [H31-15K4cr]	121 µM
No binding	ARTKQT ARKST GGK(cr)APRKQLATKAA [H31-25K14cr]	
